Test results taken from patent US8841413B2, “Antidiabetic compounds” (Cadila Healthcare Limited, priority 2006, dated 2014).
Read-outs that look alike come from different tables or passages of the source.

Experiments:
[1] = tested on: RIN5F (Rat Insulinoma) cells; test: In vitro glucose-dependent insulin secretion (RIN5F cell assay); format: cell-based; details: 16.7 mM glucose load, mean ± S.D., n = 3
Experimental: After trypsinization, RIN5F cells were seeded at a concentration of 0.2×10^6·cells per well, in 12 well plates.
The supernatant was collected and the insulin amount was measured by ultra sensitive Rat insulin ELISA kit (Crystal Chem, Ill.). The protein was estimated in the supernatant using Bicinchoninic Acid kit, according to the manufacturer's protocol (Sigma Aldrich, Mo.). The total insulin content obtained in Pico-gram (pg) was divided with the total protein (μg) in order to normalize for differences in cell density between wells.

[2] = Stability in simulated gastric fluid; format: in vitro ADME; details: 37° C., pH 1.5, pepsin; for half-life at 2 μM: simulated gastric fluid with pepsin
In short: (§1)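 First, each incubation is terminated using TFA in water (10% v/v). Next, samples run through a TFA/H2O-equilibrated column at 1 mL/min, with 206 nm monitoring. Finally, manually collected fractions go to electrospray MS.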

human glucagon receptor = molecular target: T1, human glucagon receptor (Homo sapiens, UniProt P47871); test: In vitro human glucagon antagonist activity (inhibition of cAMP production), CHO/human glucagon R cells; format: cell-based
T1 construct: The full-length cDNA was cloned in pcDNA3.1(Invitrogen); expressed in transfected cells
T1 sequence (P47871 26-477): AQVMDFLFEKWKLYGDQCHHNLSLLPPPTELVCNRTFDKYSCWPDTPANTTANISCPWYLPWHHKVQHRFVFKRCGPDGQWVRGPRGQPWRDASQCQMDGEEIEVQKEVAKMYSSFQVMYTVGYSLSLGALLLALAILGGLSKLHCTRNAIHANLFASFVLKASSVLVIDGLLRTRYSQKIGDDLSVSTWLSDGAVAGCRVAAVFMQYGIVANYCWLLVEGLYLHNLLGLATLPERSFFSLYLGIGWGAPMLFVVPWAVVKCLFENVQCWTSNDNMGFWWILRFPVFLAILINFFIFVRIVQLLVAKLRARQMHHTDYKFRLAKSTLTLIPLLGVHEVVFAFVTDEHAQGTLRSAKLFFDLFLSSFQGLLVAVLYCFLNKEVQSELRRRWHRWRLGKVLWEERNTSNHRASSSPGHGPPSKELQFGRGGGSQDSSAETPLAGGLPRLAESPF
Experimental: CHO cells were grown in Ham's F12 medium containing L-Glutamine (2 mM), HEPES (25 mM), NaHCO3 (1.1 g/L) and supplemented with newborn Calf Serum (NBCS; 10%), Penicillin (50 U/ml (v/v)) and Streptomycin (50 ug/ml (v/v)). Cells were split every 3 days 1:8.
The full-length cDNA was cloned in pcDNA3.1(Invitrogen). […] Clones expressing the receptor were generated by G418 (800 μg/ml active, Sigma) selection. The stable clones were thereafter maintained at 500 ug/ml (G418). The selected clone was used between passages 9-25 for cAMP assays.
The trypsin was inactivated using Ham's F12 medium containing 10% NBCS and the cells were suspended in 2 ml of complete medium. […] The medium was aspirated off from the 12 well plate and the cells were washed once using Ham's F12 (plain). […] After the incubation; the medium was removed and cells were washed once with plain Ham's F12. Subsequently, the cells were lysed by adding 500 ul of ice cold 0.1 N HCl to each well and shaking for 30 minutes at 200 rpm. The cells were then scrapped, the lysate was collected in micro centrifuge tubes and centrifuged at 12000 rpm for 10 min to remove the debris. 300 ul of supernatant from each micro-centrifuge tube was then removed into a glass tube and dried under N2 for 30 min, for cAMP estimation. The total cAMP was estimated from the sample according to the manufacturer's protocol using Cyclic AMP immunoassay kit (R&D systems, Minneapolis: MN). The remaining supernatant is used to determine the protein concentration using micro BCA (Sigma). Data is calculated as percent of control (Vehicle: water) and expressed as Mean+SD.

[3] = Stability in simulated intestinal fluid; format: in vitro ADME; details: 37° C.; for half-life at 2 μM: simulated intestinal fluid, pH 7.5, read-out: half-life (t1/2) in simulated intestinal fluid
In short: as §1

DPP IV = DPP IV (Homo sapiens, UniProt P27487); test: Stability against DPP IV enzyme; format: in vitro ADME; details: for half-life at 2 μM: DPP IV enzyme, pH 7.8, 37° C.
DPP IV, sequence (P27487 whole entry, species assumed): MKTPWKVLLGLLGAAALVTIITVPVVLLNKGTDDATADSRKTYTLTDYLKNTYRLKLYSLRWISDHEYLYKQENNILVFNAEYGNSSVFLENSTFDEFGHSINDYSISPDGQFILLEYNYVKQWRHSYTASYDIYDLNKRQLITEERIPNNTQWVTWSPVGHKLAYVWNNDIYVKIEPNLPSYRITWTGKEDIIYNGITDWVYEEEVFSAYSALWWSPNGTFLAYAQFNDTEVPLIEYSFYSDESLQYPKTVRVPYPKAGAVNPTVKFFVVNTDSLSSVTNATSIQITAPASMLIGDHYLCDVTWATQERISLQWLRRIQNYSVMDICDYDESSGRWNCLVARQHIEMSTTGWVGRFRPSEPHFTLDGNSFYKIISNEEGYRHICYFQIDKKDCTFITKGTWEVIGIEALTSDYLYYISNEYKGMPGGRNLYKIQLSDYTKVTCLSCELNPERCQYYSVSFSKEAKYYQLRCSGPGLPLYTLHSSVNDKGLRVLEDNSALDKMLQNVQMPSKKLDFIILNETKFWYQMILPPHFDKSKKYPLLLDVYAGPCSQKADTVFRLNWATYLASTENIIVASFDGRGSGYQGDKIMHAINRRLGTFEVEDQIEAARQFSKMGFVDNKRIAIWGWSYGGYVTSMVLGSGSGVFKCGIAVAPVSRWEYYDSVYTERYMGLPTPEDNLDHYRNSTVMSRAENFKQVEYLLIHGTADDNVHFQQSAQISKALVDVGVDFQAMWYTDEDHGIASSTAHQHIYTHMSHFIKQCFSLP
In short: as §1

[4] = Stability against liver microsomes; format: in vitro ADME, human; details: for half-life at 2 μM: human, human liver microsomes, pH 7.8, 37° C., read-out: half-life (t1/2) with liver microsomes
In short: as §1

[5] = Stability in human plasma; format: in vitro ADME; details: for half-life at 2 μM: pooled human plasma, pH 7.8, 37° C.
In short: as §1

Human GLP-1 receptor = molecular target: T2, Human GLP-1 receptor (Homo sapiens, UniProt P43220); format: cell-based
T2 construct: The full-length cDNA was cloned in pcDNA3.1(+); expressed in transfected cells
T2 sequence (P43220 24-463): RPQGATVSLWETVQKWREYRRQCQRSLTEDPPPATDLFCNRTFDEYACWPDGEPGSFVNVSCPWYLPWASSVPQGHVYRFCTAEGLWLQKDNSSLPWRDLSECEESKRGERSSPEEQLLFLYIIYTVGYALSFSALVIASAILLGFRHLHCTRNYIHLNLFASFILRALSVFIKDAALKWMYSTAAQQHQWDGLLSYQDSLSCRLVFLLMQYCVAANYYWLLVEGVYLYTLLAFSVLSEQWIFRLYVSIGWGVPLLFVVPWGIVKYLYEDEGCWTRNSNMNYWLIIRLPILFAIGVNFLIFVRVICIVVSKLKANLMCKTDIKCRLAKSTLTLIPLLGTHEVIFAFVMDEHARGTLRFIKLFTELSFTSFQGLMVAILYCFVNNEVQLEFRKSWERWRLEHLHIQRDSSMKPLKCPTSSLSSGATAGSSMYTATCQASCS
In short: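 Stably transfected CHO cells expressing human GLP-1R, passages 9-25, exposed to compounds for 30 min at 37 °C. Lysed in ice-cold 0.1 N HCl; total cAMP by immunoassay, protein by micro BCA; expressed as percent of water vehicle control, mean±SD.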

[6] = 1 nM test compound (fourth concentration column, between 100 nM and 10 μM) with saturated concentration of glucagon peptide
[7] = 1 nM test compound with saturated concentration of glucagon peptide
[8] = 10 nM test compound with saturated concentration of glucagon peptide
[9] = 100 nM test compound with saturated concentration of glucagon peptide
[10] = 10 μM test compound with saturated concentration of glucagon peptide
[11] = read-out: half-life (t1/2) with DPP-IV enzyme
[12] = human, read-out: half-life (t1/2) in human plasma
[13] = read-out: half-life (t1/2) in simulated gastric fluid

Structure (SMILES)	Insulin secretion ([1]; 0.1 nM test compd.) [pg/µg/h]	Insulin secretion ([1]; 1 nM test compd.) [pg/µg/h]	Insulin secretion ([1]; 10 nM test compd.) [pg/µg/h]	% degradation in 24 h when incubated with simulated gastric fluid ([2]; 2 μM) [%]	half-life (t1/2) in simulated gastric fluid ([2]; 2 μM)	Human Glucagon receptor antagonistic activity, inhibition of cAMP production of Glucagon peptide (human glucagon receptor; [6]) [pmol/ml/μg prt]	Human Glucagon receptor antagonistic activity, inhibition of cAMP production of Glucagon peptide (human glucagon receptor; [7]) [pmol/ml/μg prt]	Human Glucagon receptor antagonistic activity, inhibition of cAMP production of Glucagon peptide (human glucagon receptor; [8]) [pmol/ml/μg prt]	Human Glucagon receptor antagonistic activity, inhibition of cAMP production of Glucagon peptide (human glucagon receptor; [9]) [pmol/ml/μg prt]	Human Glucagon receptor antagonistic activity, inhibition of cAMP production of Glucagon peptide (human glucagon receptor; [10]) [pmol/ml/μg prt]	% degradation in 24 h when incubated with simulated intestinal fluid ([3]; 2 μM, pH 7.5) [%]	half-life (t1/2) in simulated intestinal fluid ([3]; 2 μM, pH 7.5)	% degradation in 24 h when incubated with DPP-IV enzyme (DPP IV; 2 μM, 37° C.) [%]	half-life at 2 μM (DPP IV; [11]) [h]	% degradation in 24 h when incubated with liver microsomes ([4]; 2 μM, 37° C.) [%]	half-life at 2 μM [4] [h]	% degradation in 24 h when incubated with human plasma ([5]; 2 μM, 37° C.) [%]	half-life at 2 μM [5, 12] [h]	half-life at 2 μM [2, 13] [h]	half-life at 2 μM [3] [h]	other results
CCc1cc(OC)ccc1-c1ccc(CC(NC(=O)[C@H](CC(=O)O)NC(=O)[C@H](CO)NC(=O)[C@@H](NC(=O)C(C)(Cc2ccccc2F)NC(=O)[C@@H](NC(=O)CNC(=O)[C@H](CCC(N)=O)NC(=O)[C@H](C)NC(=O)[C@@H](N)Cc2c[nH]cn2)[C@@H](C)O)[C@@H](C)O)C(=O)NC(Cc2ccc(-c3ccccc3C)nc2)C(N)=O)cc1 (single isomer, unassigned) [compound 26]	12.1 ± 0.51	14.1 ± 0.19	28.1 ± 0.29	14	(8) h	4 ± 0.01	15 ± 0.11	12 ± 0.13	8 ± 0.09	2 ± 0.08	40	(6) h	70	9	78	1	71	8			
CCc1cc(OC)ccc1-c1ccc(CC(NC(=O)[C@H](CC(=O)O)NC(=O)[C@H](CO)NC(=O)[C@@H](NC(=O)[C@H](Cc2ccccc2)NC(=O)[C@@H](NC(=O)CNC(=O)[C@H](CCC(N)=O)NC(=O)[C@H](CO)NC(=O)[C@@H](N)Cc2c[nH]cn2)[C@@H](C)O)[C@@H](C)O)C(=O)NC(Cc2ccc(-c3ccccc3C)cc2)C(N)=O)cc1 (single isomer, unassigned) [compound 5]	12.1 ± 0.52	14.1 ± 0.16	28.0 ± 0.36	100		14 ± 0.03	20 ± 0.06	18 ± 0.09	16 ± 0.01	12 ± 0.01	100		76		100	0.5	78		0.5	0.5	half-life (t1/2) in human plasma ([5]; 2 μM, 37° C.): (9) h
CCc1cc(OC)ccc1-c1ccc(CC(NC(=O)[C@H](CC(=O)O)NC(=O)[C@H](CO)NC(=O)[C@@H](NC(=O)C(C)(Cc2ccccc2F)NC(=O)[C@@H](NC(=O)CNC(=O)[C@H](CCC(N)=O)NC(=O)[C@H](C)NC(=O)[C@@H](N)Cc2c[nH]cn2)[C@@H](C)O)[C@@H](C)O)C(=O)NC(Cc2ccc(-c3ccccc3C)cc2)C(N)=O)cc1 (single isomer, unassigned) [compound 25]	12.4 ± 0.22	15.2 ± 0.32	29.6 ± 0.50	12	(8) h	8 ± 0.12	18 ± 0.12	16 ± 0.11	12 ± 0.13	6 ± 0.18	46	(6) h	74	9	83	1	75	8			
CCc1cc(OC)ccc1-c1ccc(CC(NC(=O)[C@H](CC(=O)O)NC(=O)[C@H](CO)NC(=O)[C@@H](NC(=O)[C@H](Cc2ccccc2)NC(=O)[C@@H](NC(=O)CNC(=O)[C@H](CCC(N)=O)NC(=O)[C@H](CO)NC(=O)[C@@H](N)Cc2c[nH]cn2)[C@@H](C)O)[C@@H](C)O)C(=O)NC(Cc2ccc(-c3ccccc3C)nc2)C(N)=O)cc1 (single isomer, unassigned) [compound 6]	12.4 ± 0.26	15.2 ± 0.33	29.6 ± 0.51	100							100		75		100	0.5	77		0.5	0.5	half-life (t1/2) in human plasma ([5]; 2 μM, 37° C.): (9) h
CCc1cc(OC)ccc1-c1ccc(CC(NC(=O)[C@H](CC(=O)O)NC(=O)[C@H](CO)NC(=O)[C@@H](NC(=O)C(C)(Cc2ccccc2F)NC(=O)[C@@H](NC(=O)CNC(=O)[C@H](CCC(N)=O)NC(=O)C2(NC(=O)[C@@H](N)Cc3c[nH]cn3)CC2)[C@@H](C)O)[C@@H](C)O)C(=O)NC(Cc2ccc(-c3ccccc3C)nc2)C(N)=O)cc1 (single isomer, unassigned) [compound 34]				00							00		00		32		00				Human GLP-1 R activity (cAMP release), % activity with respect to control (Human GLP-1 receptor; 1 nM test compound): 99 ± 0.12%; Human GLP-1 R activity (cAMP release), % activity with respect to control (Human GLP-1 receptor; 10 nM test compound): 99 ± 0.08%; Human GLP-1 R activity (cAMP release), % activity with respect to control (Human GLP-1 receptor; 100 nM test compound): 99 ± 0.11%; Human GLP-1 R activity (cAMP release), % activity with respect to control (Human GLP-1 receptor; 1 μM test compound): 99 ± 0.12%; Human GLP-1 R activity (cAMP release), % activity with respect to control (Human GLP-1 receptor; 10 μM test compound): 99 ± 0.16%; half-life ([2]; simulated gi fluid, 2 μM, read-out: half-life (t1/2) in simulated gastric fluid): > 24 h; half-life ([3]; simulated gi fluid, 2 μM, pH 7.5, read-out: half-life (t1/2) in simulated intestinal fluid): > 24 h; half-life (DPP IV; 2 μM, 37° C., read-out: half-life (t1/2) with DPP-IV enzyme): > 24 h; half-life (t1/2) with liver microsomes ([4]; 2 μM, 37° C.): (5) h; half-life ([5]; human, plasma, 2 μM, 37° C., read-out: half-life (t1/2) in human plasma): > 24 h
